Literature values, collected in patent US20230364254A1, “METHODS FOR TREATING CANCERS WITH ANTIBODY DRUG CONJUGATES (ADC) THAT BIND TO 191P4D12 PROTEINS” (priority 2020, published 2023).
Read-outs that look alike come from different tables or passages of the source.

What was measured:
[1] = system: metastatic urothelial cancer; details: cited from earlier work
[2] = system: acute myeloid leukemia (AML); details: administered alone; cited from earlier work
[3] = second-line, post-platinum, phase 3 study in 542 patients
[4] = first line, patients ineligible for cisplatin, open-label single arm study

Compound: pembrolizumab: humanized monoclonal IgG4 anti-PD-1 antibody
- ORR ([1]; first line, patients ineligible for cisplatin, open label single arm study in 370 patients): 29%
- difference in progression-free survival (PFS) between the two arms ([1]; second-line, post-platinum, phase 3, vs taxane chemotherapy or vinflunine): No statistically significant difference
- ORR [1, 3]: 21%
- OS [1, 3]: 10.3 months

Compound: CC(=O)O[C@@]12CO[C@@H]1C[C@H](O)[C@@]1(C)C(=O)[C@H](O)C3=C(C)[C@@H](OC(=O)[C@H](O)[C@@H](NC(=O)OC(C)(C)C)c4ccccc4)C[C@@](O)([C@@H](OC(=O)c4ccccc4)[C@H]21)C3(C)C [docetaxel]
- ORR (n=2/19) ([1]; after platinum and CPI therapy): 10.5%

Compound: CT-011: anti-PD-1 antibody, a humanized antibody
- response in acute myeloid leukemia (AML) at relapse [2]: failed to show response

Compound: atezolizumab: anti-programmed death-ligand 1 (PD-L1) immune checkpoint inhibitor
- median OS [1, 4]: 15.9 months
- objective response rate (ORR) [1, 4]: 23%
- confirmatory phase 3 trial outcome ([1]; second-line): failed to meet its primary endpoint of OS

Compound: CC[C@]12C=CCN3CC[C@@]4(c5cc([C@@]6(C(=O)OC)C[C@@H]7C[C@@H](C(C)(F)F)CN(Cc8c6[nH]c6ccccc86)C7)c(OC)cc5N(C)[C@H]4[C@@](O)(C(=O)OC)[C@@H]1OC(C)=O)[C@@H]32 [vinflunine]
- overall response rate ([1]; second-line treatment of metastatic disease): 9%
- hazard ratio ([1]; second-line, vinflunine+BSC vs BSC alone): 0.88
- survival benefit ([1]; second-line, vinflunine+best supportive care (BSC) vs BSC alone): 2 months
- survival ([1]; second-line, vinflunine+best supportive care (BSC)): 6.9 months
